# ± gives the expanded uncertainty stated by the source.
# Tests used:
# [1] = 100 kPa, Liquid; for speed of sound: Frequency=3 MHz, Sing-around technique in a fixed-path interferometer; for mass density: Vibrating tube method
# [2] = xn = mol fraction of the nth substance listed; conditions: 100 kPa, Liquid, x2 = 0; for speed of sound: Frequency=3 MHz, Sing-around technique in a fixed-path interferometer; for mass density: Vibrating tube method
SMILES,speed of sound ([1]; 283.15 K) [m/s],mass density ([1]; 283.15 K) [kg/m3],speed of sound ([1]; 293.15 K) [m/s],mass density ([1]; 293.15 K) [kg/m3],speed of sound ([1]; 303.15 K) [m/s],mass density ([1]; 303.15 K) [kg/m3],speed of sound ([1]; 313.15 K) [m/s],mass density ([1]; 313.15 K) [kg/m3],speed of sound ([2]; 283.15 K) [m/s],mass density ([2]; 283.15 K) [kg/m3],speed of sound ([2]; 293.15 K) [m/s],mass density ([2]; 293.15 K) [kg/m3],speed of sound ([2]; 303.15 K) [m/s],mass density ([2]; 303.15 K) [kg/m3],speed of sound ([2]; 313.15 K) [m/s],mass density ([2]; 313.15 K) [kg/m3]
O=Cc1ccco1 [2-furaldehyde],1495.4 ± 1.6,1169.93 ± 0.37,1458.8 ± 1.6,1159.33 ± 0.36,1422.5 ± 1.6,1148.69 ± 0.35,1386.5 ± 1.6,1138.01 ± 0.34,,,,,,,,
CCCCO [butan-1-ol],1291.4 ± 1.6,817.21 ± 0.24,1257.5 ± 1.6,809.65 ± 0.24,1223.6 ± 1.6,802 ± 0.24,1190.2 ± 1.6,794.21 ± 0.24,,,,,,,,
CCCCO [butan-1-ol] + O=Cc1ccco1,,,,,,,,,1291.4 ± 1.6,817.21 ± 0.24,1257.5 ± 1.6,809.65 ± 0.24,1223.6 ± 1.6,802 ± 0.24,1190.2 ± 1.6,794.21 ± 0.24
CCC(C)O (stereo unspecified) [butan-2-ol],1268.4 ± 1.6,815.39 ± 0.24,1232.4 ± 1.6,807.34 ± 0.24,1196.1 ± 1.6,798.99 ± 0.24,1159.5 ± 1.6,790.28 ± 0.24,,,,,,,,
CCC(C)O (stereo unspecified) [butan-2-ol] + O=Cc1ccco1,,,,,,,,,1268.4 ± 1.6,815.39 ± 0.24,1232.4 ± 1.6,807.34 ± 0.24,1196.1 ± 1.6,798.99 ± 0.24,1159.5 ± 1.6,790.28 ± 0.24
CCO [ethanol],1197.3 ± 1.6,798.51 ± 0.24,1162.5 ± 1.6,789.99 ± 0.24,1128.3 ± 1.6,781.38 ± 0.24,1094.6 ± 1.6,772.64 ± 0.24,,,,,,,,
CCO [ethanol] + O=Cc1ccco1,,,,,,,,,1197.3 ± 1.6,798.51 ± 0.24,1162.5 ± 1.6,789.99 ± 0.24,1128.3 ± 1.6,781.38 ± 0.24,1094.6 ± 1.6,772.64 ± 0.24

# From the NIST ThermoML archive (doi:10.1016/j.tca.2014.11.009)
